Consider one compound from patent publication US7097866B2, “Composition and method to whiten and exfoliate skin” (Desert Whale Jojoba Company, priority 2002, dated 2006).

The test relates to mouse B16F10 melanoma cells. Description: melanin content and cell pellet color of mouse B16F10 melanoma cells cultured 6 days. It counts as cell-based. Details: key to Vidjual color determination of cell pellet (score 5 black to 1 white, 0 not detectable): A Vidjual score of 5 means the cell pellet was black; A Vidjual score of 1 means the cell pellet was white; A Vidjual score of 0 means the cell pellet was not detectable, i.e. it has no color at all. Particulars: Sodium lactate positive control; for Vidjual color determination of cell pellet (score 5 black to 1 white, 0 not detectable): 25 mM or 50 mM level; for total melanin content per microgram of protein: added at either 25 mM or 50 mM level.

With `CC(O)C(=O)[O-].[Na+]` (stereo not shown) [Positive Control, Sodium lactate], the “Vidjual color determination of cell pellet (score 5 black to 1 white, 0 not detectable)” value was 3 (table row 0.5 v/v %) and 1 (table row 1.0 v/v %). The “total melanin content per microgram of protein” value is reported as 0.240 micrograms per microgram of pr (table row 0.5 v/v %) and 0.107 micrograms per microgram of pr (table row 1.0 v/v %).
